Test results as given in ChEMBL document CHEMBL1275538, “In vitro activity of OPT-80 tested against clinical isolates of toxin-producing Clostridium difficile” (Antimicrob Agents Chemother, 2008).
≈ marks a conversion by molar mass, not a printed value.

Key:
Clostridioides difficile [1] = test: Antibacterial activity against toxin-positive Clostridium difficile clinical isolate by agar dilution method; type: functional
Clostridioides difficile [2] = test: Antibacterial activity against toxin-positive Clostridium difficile clinical isolate assessed as percent of susceptible isolates by agar dilution method; type: functional
Clostridioides difficile [3] = test: Antibacterial activity against toxin-positive Clostridium difficile clinical isolate by agar dilution method in presence of Tazobactam; type: functional
Clostridioides difficile [4] = test: Antibacterial activity against Clostridium difficile by broth microdilution method using Wilkins-Chalgren broth; type: functional
Clostridioides difficile [5] = test: Antibacterial activity against Clostridium difficile by agar dilution method using Wilkins-Chalgren agar; type: functional
[6] = Cmax in syrian golden hamster serum at 200 mg administered BID after 1.5 hrs; type: ADME, organism-based, Mesocricetus auratus; parameters: dose 200 mg
[7] = Apparent elimination half-life in syrian golden hamster at 400 mg/kg; type: ADME, organism-based, Mesocricetus auratus; parameters: dose 400 mg/kg; details: in vivo, read-out: beta t1/2 (converted)
Clostridioides difficile [8] = test: Antibacterial activity against Clostridium difficile by M11-A7 CLSI agar dilution; type: functional
Clostridioides difficile [9] = test: Antibacterial activity against Clostridium difficile by M11-A6 CLSI agar dilution; type: functional
Clostridioides difficile [10] = test: Antibacterial activity against Clostridium difficile by M11-A5 CLSI agar dilution; type: functional
Clostridioides difficile [11] = test: Antibacterial activity against toxin-positive Clostridium difficile clinical isolate by agar dilution method in presence of clavulanic acid; type: functional

C[C@@H](O)[C@H]1C(=O)N2C(C(=O)O)=C(S[C@@H]3CN[C@H](C(=O)N(C)C)C3)[C@H](C)[C@H]12 [MEROPENEM]
MIC50 (Clostridioides difficile [1]): 2 µg/mL (≈ 5.22 µM) | MIC90 (Clostridioides difficile [1]): 2 µg/mL (≈ 5.22 µM)

CCC[C@@H]1C[C@@H](C(=O)N[C@@H]([C@H]2O[C@H](SC)[C@H](O)[C@@H](O)[C@H]2O)[C@H](C)Cl)N(C)C1 [CLINDAMYCIN]
MIC50 (Clostridioides difficile [1]): 8 µg/mL (≈ 18.8 µM) | MIC90 (Clostridioides difficile [1]): > 16 µg/mL | Activity (Clostridioides difficile [2]): 17.3%

CCN1CCN(C(=O)N[C@@H](C(=O)N[C@@H]2C(=O)N3[C@@H]2SC(C)(C)[C@@H]3C(=O)O)c2ccccc2)C(=O)C1=O [PIPERACILLIN]
MIC50 (Clostridioides difficile [3]): 8 µg/mL | MIC90 (Clostridioides difficile [3]): 8 µg/mL

CCc1c(Cl)c(O)c(Cl)c(O)c1C(=O)O[C@H]1[C@H](O)[C@H](OC)[C@H](OC/C2=C\C=C\C[C@H](O)/C(C)=C/[C@H](CC)[C@@H](O[C@@H]3OC(C)(C)[C@@H](OC(=O)C(C)C)[C@H](O)[C@@H]3O)/C(C)=C/C(C)=C/C[C@@H]([C@@H](C)O)OC2=O)O[C@@H]1C [FIDAXOMICIN]
MIC50 (Clostridioides difficile [1]): 0.25 µg/mL (≈ 0.236 µM) | MIC90 (Clostridioides difficile [1]): 0.5 µg/mL (≈ 0.473 µM) | MIC50 (Clostridioides difficile [4]): 0.0019 µg/mL (≈ 0.0018 µM) | MIC90 (Clostridioides difficile [4]): 0.0078 µg/mL (≈ 0.00737 µM) | MIC50 (Clostridioides difficile [5]): 0.25 µg/mL (≈ 0.236 µM) | MIC90 (Clostridioides difficile [5]): 0.25 µg/mL (≈ 0.236 µM) | Cmax [6]: 26.5 ng/mL | half-life [7]: 56.4 min | MIC50 (Clostridioides difficile [8]): 0.25 µg/mL (≈ 0.236 µM) | MIC90 (Clostridioides difficile [8]): 0.5 µg/mL (≈ 0.473 µM) | MIC50 (Clostridioides difficile [9]): 0.125 µg/mL (≈ 0.118 µM) | MIC90 (Clostridioides difficile [9]): 0.125 µg/mL (≈ 0.118 µM) | MIC (Clostridioides difficile [10]): ≤ 0.06 µg/mL | MIC50 (Clostridioides difficile [10]): ≤ 0.016 µg/mL | MIC90 (Clostridioides difficile [10]): 0.125 µg/mL (≈ 0.118 µM)

CO/N=C(\C(=O)N[C@@H]1C(=O)N2C(C(=O)O)=C(CSc3nc(=O)c(O)nn3C)CS[C@H]12)c1csc(N)n1 [CEFTRIAXONE]
MIC50 (Clostridioides difficile [1]): 32 µg/mL (≈ 57.7 µM) | MIC90 (Clostridioides difficile [1]): 128 µg/mL (≈ 231 µM) | Activity (Clostridioides difficile [2]): 1%

CC1(C)S[C@@H]2[C@H](NC(=O)[C@H](N)c3ccc(O)cc3)C(=O)N2[C@H]1C(=O)O [AMOXICILLIN]
MIC50 (Clostridioides difficile [11]): 1 µg/mL | MIC90 (Clostridioides difficile [11]): 1 µg/mL

CO[C@H]1/C=C/O[C@@]2(C)Oc3c(C)c(O)c4c(O)c(c(/C=N/N5CCN(C)CC5)c(O)c4c3C2=O)NC(=O)/C(C)=C\C=C\[C@H](C)[C@H](O)[C@@H](C)[C@@H](O)[C@@H](C)[C@H](OC(C)=O)[C@@H]1C [RIFAMPIN]
MIC50 (Clostridioides difficile [1]): 0.015 µg/mL (≈ 0.0182 µM) | MIC90 (Clostridioides difficile [1]): 0.015 µg/mL (≈ 0.0182 µM)
